Source: patent US20090062403A1, “Compositions and Methods for Treatment of Disorders of Protein Aggregation” (priority 2004, published 2009)
Entries after “also recorded” stand apart in the source; their conditions may differ. Like-named read-outs stand apart in the source and are kept apart here. Marks after values point to notes of the source that are not given here.

What was measured:
Aβ oligomers [1] = settings: positive control, previously shown; cited from earlier work
Aβ42 = target: T1, Aβ42 (Homo sapiens, UniProt P05067); experiment: Plasma Aβ42 levels in TgCRND8 mice; format: in vivo, mouse; settings: TgCRND8 mice following 28 days of therapy at five months of age
T1 construct: from tissue; host or cells: hemi-brain homogenate of TgCRND8 transgenic mice

7PA2 cells = format: cell-based, Chinese Hamster
Protocol: (§1) Preparation of conditioned media: CHO— or 7PA2 cells were grown to ˜90% confluency. The cells were washed 1× in serum-free DMEM, then incubated overnight (˜15 hrs) in 4 ml/10 cm dish in serum-free DMEM, pen/strep, 1-glutamine with/without AZD-103. The following day, the conditioned media (CM) was collected, spun at 1000×g and treated with complete protease inhibitors (in mg/ml 1 leupeptin, 1 pepstatin, 0.1 aprotinin, 40 EDTA, and 2 mM 1/10 phenantroline) for biochemistry experiments or cell culture compatible protease inhibitors (Sigma P1860 1:1000) for electrophysiology experiments. The CM was stored at −80° C. until sufficient volumes were collected to complete a “batch”—typically ˜300 ml. […] The resulting concentrate was pooled, aliquoted in 1 ml fractions, and stored at −80° C. […] Therefore, for any given set of experiments (i.e. dose response curve, time curve, etc), a single batch is prepared and compared to 7PA2 alone within that batch.

TgCRND8 mice [2] = experiment: Morris Water Maze spatial reference memory test in TgCRND8 mice; format: in vivo, mouse; settings: for Spatial learning performance (Morris Water Maze) compared to untreated TgCRND8 littermates: oral treatment for 28 days from 5 months of age, tested at 6 months
Aβ oligomers [3] = settings: rat, in vivo
Target sequence in this assay (P05067 672-711 limits assumed): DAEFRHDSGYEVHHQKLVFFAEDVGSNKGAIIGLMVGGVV

Aβ oligomers [4] = experiment: IP/Western blot of Aβ oligomers in 7PA2 conditioned media; format: cell-based, human
Protocol: as §1
Target sequence in this assay (P05067 672-711 limits assumed): as above
IP/Western blots: 8 ml of 7PA2 CM were precleared with […] of protein A agarose for 30 min. The beads were spun down, and […] of the polyclonal anti-Aβ antibody R1282 was added to the supernatant with an additional 40 μl of protein A agarose. These samples were nutated at 4° C. overnight. The beads were washed with a series of buffers 0.5 STEN (sodium chloride, tris, EDTA, NP-40), SDS STEN, STEN. 2× tricine sample buffer was added to the washed beads, which were then boiled, centrifuged, and the resulting supernatant loaded onto 10-20% tricine gels. The proteins were then transferred to nitrocellulose, and probed with the anti-Aβ antibody 6E10.

Aβ oligomers [5] = format: in vivo; settings: rat
Excerpt: The Aβ oligomers are naturally produced by cells transfected with genes that over-produce the amyloid precursor protein (APP). APP is cleaved by secretase(s) and the cells construct the oligomeric Aβ into molecules ranging from 2 to 12 amyloid proteins (2 mer to 12 mer) and secrete it into the culture medium (CM) of cultured cells. In addition, oligomeric Aβ is extracted from brain homogenate taken from transgenic mice (Tg2576) transfected with the Swedish APP mutation. […] These purified oligomeric forms of Aβ, at physiological concentrations relevant to those found in AD, are injected into the rat's lateral ventricle through an indwelling cannula while the animals are awake and moving. Two hours after injection the rats are tested under sensitive cognitive assay.
The assay, the Alternating Lever Cyclic Ratio (ALCR) test, has proven to be much more sensitive than previously published methods for measuring drug effects on cognitive function. In this task, rats must learn a complex sequence of lever-pressing requirements in order to earn food reinforcement in a two-lever experimental chamber. Subjects must alternate between two levers by switching to the other lever after pressing the first lever enough to get food reward. The exact number of presses required for each food reward changes, first increasing from 2 responses per food pellet up to 56 presses per food pellet, then decreasing back to 2 responses per pellet. Intermediate values are based on the quadratic function, x^2−x. One cycle is an entire ascending and descending sequence of these lever press requirements (e.g., 2, 6, 12, 20, 30, 42, 56, 56, 42, 30, 20, 12, 6, and 2 presses per food reward). Six such full cycles are presented during each daily session.
Oligomeric Aβ: Prepared from transfected Chinese Hamster Ovary Cells (7PA2 cells). These cells secrete oligomeric Aβ into the culture medium (CM) at physiological levels. Aβ oligomers was also derived from Tg2576 mouse brain and purified by size exclusion chromatography. Samples of oligomeric Aβ were characterized by Western Blot Analysis. Appropriate control compounds were produced and tested for each active Aβ oligomeric configuration. Rats: Forty (40) rats were trained under ALCR for approximately 3 months until their error rates are stable. Training sessions were conducted 5 days each week. Surgery: After training, all rats received a single 28 ga. cannula that was permanently affixed to the skull, and aimed at the lateral ventricle (divided equally between left and right). Rats were allowed 5 days to recover from surgery. Administration: In vivo administration of AZD103 to rats was performed by dissolving AZD103 into drinking water. Different concentrations were prepared, and the average daily water intake used to target specific average daily dose levels. These dose levels were therefore approximate. Testing: AZD 103 was tested against Aβ oligomers known to disrupt cognitive function. Two general procedures were incorporated. • 1. AZD 103 was incubated with the injectate medium containing Aβ oligomers prior to assessing it's affect on ALCR. Appropriate control injections were included un-incubated (untreated) Aβ oligomers as well as AZD 103 were injected ICV. • 2. Rats were treated with AZD 103, administered in drinking water, for at least 3-4 days prior to testing ICV injection of Aβ oligomers preparations known to affect cognitive function under ALCR.
Treatments were assessed in the following order: • 1. ICV 7PA2 CM alone • 2. ICV AZD 103 alone • 3. ICV ex vivo incubated 7PA2 CM with AZD 103 • All rats received treatments 1-3 in randomized order. • 4. ICV 7PA2 CM after 4 days treatment with PO AZD103 30 mg/kg/day. • 5. ICV 7PA2 CM after 4 days treatment with PO AZD103 100 mg/kg/day. • 6. ICV 7PA2 CM after 4 days treatment with PO AZD103 300 mg/kg/day. • 7. ICV 7PA2 CM after 4 days with no treatment. […]
Target sequence in this assay (P05067 672-711 limits assumed): as above

TgCRND8 mice [6] = settings: mouse, in vivo
Protocol: Mice. […] This initial dosage was chosen based upon the dosage of myo-cyclohexanehexol (6-18 grams/day/adult or 86-257 mg/Kg/day) that is typically administered to human patients for various psychiatric disorders. […] A cohort of animals (n=10 mice per treatment arm) entered the study at five months of age, and outcomes were then analyzed after one month of treatment. The body weight, coat characteristics and in cage behaviour were monitored. Mannitol was used as a negative control for potential alterations in caloric intake. All experiments were performed according to the Canadian Council on Animal Care guidelines. Behavioural tests: Morris Water Maze testing was performed as previously described. […] Duration of walking, pausing and grooming were analyzed as indices of spontaneous locomotor activity. […] Latency to fall was recorded in four daily trials, conducted at 30 min intervals. […] Amyloid plaque burden was assessed with LecoIA-3001 image analysis software interfaced with Leica microscope and Hitachi KP-M1U CCD video camera. […] Vascular amyloid burden was defined as amyloid originating from or surrounding blood vessels and was analysed similarly. […] After neutralization, the samples were diluted and analyzed for Aβ40 and Aβ42 using commercially available kits (BIOSOURCE International). Each hemisphere was analyzed in triplicate and the mean values±SEM reported. […] Gliosis Quantitation. […]

synaptophysin = experiment: Synaptophysin quantification in CA1 region of the hippocampus; format: in vivo, mouse; settings: TgCRND8 mice; for increase of synaptophysin reactive boutons and cell bodies: vs untreated
Protocol: Synaptophysin immunohistochemical staining was performed on 3 evenly spaced saggital sections of paraformaldehyde-fixed treated and control mice. Sections were immunolabelled for synaptophysin with anti-synaptophysin IgG (1:40; Roche, Laval, PQ). Digital images were captured and analyzed as described above. Within each section, three randomly chosen 100 μm^2 areas of the CA1 region of the hippocampus were counted for synaptophysin reactive cell bodies and boutons. The results are expressed as the mean of the number of reactive bodies and boutons per 100 μm^2 [48, 49].

cerebral amyloid plaques = experiment: Cerebral amyloid burden (plaque number, area, size by immunohistochemistry); format: in vivo, mouse; settings: TgCRND8 mice
Protocol: Mice. […] This initial dosage was chosen based upon the dosage of myo-cyclohexanehexol (6-18 grams/day/adult or 86-257 mg/Kg/day) that is typically administered to human patients for various psychiatric disorders. […] A cohort of animals (n=10 mice per treatment arm) entered the study at five months of age, and outcomes were then analyzed after one month of treatment. The body weight, coat characteristics and in cage behaviour were monitored. Mannitol was used as a negative control for potential alterations in caloric intake. All experiments were performed according to the Canadian Council on Animal Care guidelines. Behavioural tests: Morris Water Maze testing was performed as previously described. After non-spatial pre-training, mice underwent place discrimination training for 5 days with 4-trials per day, followed by a cued visible platform to rule out general motivational, learning deficits and motor problems, and a probe trial to evaluate memory. […] Open field test for motor activity was preformed as described previously. Duration of walking, pausing and grooming were analyzed as indices of spontaneous locomotor activity. Sensorimotor function was examined with an Economex™ accelerating rotarod (Columbus Instruments, Columbus, Ohio), as described elsewhere. The rod was set to accelerate at a rate of 0.2 r.p.m./s, from an initial, constant speed of 5 r.p.m. Latency to fall was recorded in four daily trials, conducted at 30 min intervals. All mice were trained for seven days before testing. The test day performance score for each animal was obtained by summing its latency to fall over the four trials Cerebral amyloid burden. Brains were removed and one hemisphere was fixed in 4% paraformaldehyde and embedded in paraffin wax in the mid sagittal plane. To generate sets of systematic uniform random sections, 5 μm serial sections were collected across the entire hemisphere. Sets of sections at 50 μm intervals were used for analyses (10-14 sections/set). Plaques were identified after antigen retrieval with formic acid, and incubation with primary anti-Aβ antibody (Dako M-0872), followed by secondary antibody (Dako StreptABCcomplex/horseradish kit). End products were visualized with DAB and were counter-stained with luxol fast blue. Amyloid plaque burden was assessed with LecoIA-3001 image analysis software interfaced with Leica microscope and Hitachi KP-M1U CCD video camera. Openlab imaging software (Improvision, Lexington, Mass.) was then used to convert micrographs to binary images for plaque number and plaque area determinations. Vascular amyloid burden was defined as amyloid originating from or surrounding blood vessels and was analysed similarly. Plasma and Cerebral Aβ Content. Hemi-brain samples were homogenized in a buffered sucrose solution, followed by either 0.4% diethylamine/100 mM NaCl for soluble Aβ levels or cold formic acid for the isolation of total Aβ. After neutralization, the samples were diluted and analyzed for Aβ40 and Aβ42 using commercially available kits (BIOSOURCE International). Each hemisphere was analyzed in triplicate and the mean values±SEM reported. Western blot analyses were performed on all fractions using urea gels for Aβ species analyses. Aβ was detected using 6E10 (BIOSOURCE International) and Enhanced Chemiluminenscence (Amersham). Gliosis Quantitation. Five randomly selected, evenly spaced, sagittal sections were collected from paraformaldehyde-fixed and frozen hemispheres of treated and control mice. Sections were immunolabelled for astrocytes with anti-rat GFAP IgG2, (Dako; diluted 1:50) and for microglia with anti-rat CD68 IgG2b (Dako; 1:50).

TgCRND8 mice [7] = experiment: Pilot in vivo studies; set-up: species or system mouse; settings: data not shown
Excerpt: The TgCRND8 mice and non-transgenic littermates were assigned to sex- and age-matched cohorts that were then used to test the effectiveness of the cyclohexanehexol stereoisomers as a therapeutic (with treatment delayed until five months of age and continued for one month until six months of age). […] The endpoints were cognitive function, brain Aβ levels, and neuropathology. […] Over the course of these experiments, observers were unaware of genotype or treatment group.

Aβ = target: T2, Aβ (Homo sapiens, UniProt P05067); settings: reference [16]; cited from earlier work
T2 construct: neurotoxic oligomeric/protofibrillar aggregates of amyloid β-peptide (Aβ)

[8] = 1.25 μM applied to 7PA2 CM (post-cond)
[9] = ICV AZD103 alone, % of baseline errors
[10] = ICV Aβ oligomers incubated ex vivo with AZD103, % of baseline errors
[11] = ICV oligomers after 4 days p.o. 30 mg/kg/day in drinking water
[12] = ICV oligomers after 4 days p.o. 100 mg/kg/day in drinking water
[13] = ICV oligomers after 4 days p.o. 300 mg/kg/day in drinking water
[14] = 28 day course at 5 months of age, vs untreated
[15] = 28 days treatment, 6 months of age

T2 sequence (P05067 672-713 limits assumed): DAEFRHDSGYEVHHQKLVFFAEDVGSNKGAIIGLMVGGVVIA
T1 sequence (P05067 672-713 limits assumed): as above

## Oc1cccc(Nc2ccc(Nc3cccc(O)c3)nn2)c1 [RS0406]
Aβ oligomers [1]
  production of oligomers when added pre-cond: reduces the production of oligomers

## 1,3,5/2,4,6-(scyllo-) cyclohexanehexol [Scyllo-cyclohexanehexol]
Aβ42
  Plasma Aβ42 levels: 990 ± 73 pg/mL
7PA2 cells
  toxicity (7PA2 cells, APPs expression, LTP in CHO— conditions): No direct evidence of AZD-103 toxicity was observed
TgCRND8 mice [2]; TgCRND8 mice, administered for 2 months, ending at 7 months of age
  effects on cognition and pathology: Sustained effects both on cognition and pathology were observed
TgCRND8 mice [2]; TgCRND8 mice
  Spatial learning performance (Morris Water Maze) compared to untreated TgCRND8 littermates: significantly better behavioural performance compared to untreated TgCRND8 mice; also recorded: significantly better than untreated TgCRND8 littermates
TgCRND8 mice [2]; separate cohort of TgCRND8 mice, data not shown
  % time in target quadrant (probe trial, alternate measure): not statistically different from non-Tg littermates
Aβ oligomers [3]
  brain penetrance following oral dosing: sufficiently brain penetrant
Aβ oligomers [4]; [8]
  Aβ dimer on Western blots: unaffected
  Aβ trimer on Western blots: reduced the trimer
Aβ oligomers [4]; dose response, pre-cond and post-cond, all concentrations
  Aβ dimer and trimer levels measured absolutely and normalized to monomer: appeared to reduce dimer and trimer levels
Aβ oligomers [5]; ICV AZD103 alone
  performance in ALCR when administered without oligomers: no impact on performance
Aβ oligomers [5]; [9]
  Perseveration % errors: 99%
  Switching % errors: 99%
Aβ oligomers [5]; [10]
  Perseveration % errors: 100%
  Switching % errors: 95%
Aβ oligomers [5]; [11]
  Perseveration % errors: 120%
  Switching % errors: 109%
Aβ oligomers [5]; [12]
  Perseveration % errors: 120%
  Switching % errors: 100%
Aβ oligomers [5]; [13]
  Perseveration % errors: 99%
  Switching % errors: 109%
TgCRND8 mice [6]
  grooming or activity in the open field test: no effect on grooming or activity
  sensorimotor function (Rotarod), treated vs untreated TgCRND8 mice: no difference
synaptophysin; delayed treatment study
  number of synaptophysin reactive boutons and cell bodies in the CA1 region: 2625±124 /100 μm^2
  increase of synaptophysin reactive boutons and cell bodies: 150%
synaptophysin; prophylactic study group
  number of synaptophysin reactive boutons and cell bodies in the CA1 region: 2384±232 /100 μm^2
  increase of synaptophysin reactive boutons and cell bodies: 148%
Cerebral amyloid plaques; [14]
  percent area of the brain covered by plaques, reduction: 14±0.5%
  plaque number reduction: 13±0.3%
  plaque size reduction: 16±0.4%
Cerebral amyloid plaques; [15]
  Mean Plaque Size: 336 ± 6* μm^2
  Total Plaque Area: 420027 ± 14986* μm^2
  Total Plaque Count: 1260 ± 27

## O[C@H]1[C@H](O)[C@@H](O)[C@H](O)[C@@H](O)[C@H]1O [myo-cyclohexanehexol, 1,2,3,5/4,6-(myo-)cyclohexanehexol]
TgCRND8 mice [7]
  benefit in pilot in vivo studies: no significant benefit
Aβ
  effectiveness in prior in vitro studies: only weakly effective

## OC1C(O)C(O)C(O)C(O)C1O (stereo not drawn) [Epi-cyclohexanehexol, 1,2,3,4,5/6-(epi-) cyclohexanehexol, reference compound]
TgCRND8 mice [2]; TgCRND8 mice
  Spatial learning performance (Morris Water Maze) compared to untreated TgCRND8 littermates: not significantly different from that of untreated TgCRND8 littermates
